Experimental data: US20210255193A1, “LYSINE REACTIVE PROBES AND USES THEREOF” (The Scripps Research Institute, priority 2017, published 2021)

Key:
[1] = molecular target: T1, AGFG1 Arf-GAP domain and FG repeat-containing protein 1 (Homo sapiens, UniProt P52594); test: competitive isoTOP-ABPP; format: binding; set-up: key to isoTOP-ABPP reactivity ratio at lysine P52594_K134: R = MS1 peak area ratio, DMSO (heavy) / compound-treated (light); conditions: for isoTOP-ABPP ratio (R) at liganded lysine P52594_K134 / R value (DMSO/fragment) for probe 1 labeling / isoTOP-ABPP reactivity ratio at lysine P52594_K134: 50 uM, in vitro; for isoTOP-ABPP ratio (R) at liganded lysine P52594_K134: sol, 231; for R value (DMSO/fragment) for probe 1 labeling: P52594_K134; for R value (DMSO/fragment) for probe 1 labeling / isoTOP-ABPP reactivity ratio at lysine P52594_K134: 231 sol; for isoTOP-ABPP ratio, lysine P52594_K134: 50 uM_231_sol_in vitro
T1 construct: isoTOP-ABPP experiments performed in cell lysates (in vitro); endogenous in cells; host or cells: soluble proteome of human cancer cell lines (MDA-MB-231, Ramos, Jurkat)
T1 sequence (P52594 1-562): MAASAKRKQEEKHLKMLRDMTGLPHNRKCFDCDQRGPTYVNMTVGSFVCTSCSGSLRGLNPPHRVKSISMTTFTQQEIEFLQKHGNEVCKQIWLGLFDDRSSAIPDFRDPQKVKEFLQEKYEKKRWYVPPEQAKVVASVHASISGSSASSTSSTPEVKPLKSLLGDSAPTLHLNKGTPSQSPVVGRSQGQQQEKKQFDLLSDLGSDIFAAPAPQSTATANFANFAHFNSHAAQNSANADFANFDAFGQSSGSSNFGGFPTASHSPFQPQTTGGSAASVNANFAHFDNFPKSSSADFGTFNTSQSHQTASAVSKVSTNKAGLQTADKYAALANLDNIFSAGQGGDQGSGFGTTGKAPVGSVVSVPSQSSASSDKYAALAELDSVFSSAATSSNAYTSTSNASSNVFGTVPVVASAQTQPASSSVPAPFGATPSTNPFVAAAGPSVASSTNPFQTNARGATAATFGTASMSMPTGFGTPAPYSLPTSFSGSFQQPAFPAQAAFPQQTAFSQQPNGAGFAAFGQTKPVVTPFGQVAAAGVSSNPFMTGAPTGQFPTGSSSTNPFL
Method: (§1) In vitro covalent fragment treatment for isoTOP-ABPP. All compounds were made up as solutions in DMSO (100×) and were used at a final concentration of 50 μM for activated esters and 100 μM for guanidinylating agents. For each profiling sample, 0.5 ml of lysate was treated with 5 μl of the 100× compound stock solution or 5 μl of DMSO. Samples were treated with activated esters for
(§2) STP-alkyne labeling and click chemistry. For concentration-dependent reactivity measurements by isoTOP-ABPP, 0.5 ml proteome aliquots were treated at ambient temperature with 1 mM STP-alkyne 1 (5 μl of 100 mM stock in DMSO) and 0.1 mM STP alkyne 1 (5 μl of 10 mM stock in DMSO), respectively. For competitive isoTOP-ABPP, after in vitro fragment treatment (detailed above), the samples were labeled for 1 h at ambient temperature with 0.1 mM STP-alkyne 1 (5 μl of 10 mM stock in DMSO). Samples were conjugated by copper-mediated azide-alkyne cycloaddition (CuAAC) to either the light (1 mM STP-alkyne or fragment treated) or heavy (0.1 mM STP-alkyne or DMSO treated) TEV tags (10 μl of 5 mM stocks in DMSO, final concentration=100 μM) using tris(2-carboxyethyl)phosphine hydrochloride
(§3) R value calculation and processing. The ratios of light and heavy MS1 peaks for each unique peptide were quantified with a CIMAGE software using default parameters (3 MS1 acquisitions per peak and signal to noise threshold set to 2.5). For reactivity measurements by isoTOP-ABPP, the R value was calculated from the ratio of MS1 peak areas, comparing the 1 mM STP alkyne sample (light TEV tag) with the 0.1 mM STP alkyne sample (heavy TEV tag). For competitive isoTOP-ABPP, the R value was calculated from the ratio of MS1 peak areas, comparing the DMSO treated sample (heavy TEV tag) with the compound treated sample (light TEV tag). […] Ratios for unique peptide entries are calculated for each experiment; overlapping peptides with the same modified lysine (for example, different charge states, MudPIT chromatographic steps or tryptic termini) are grouped together and the median ratio is reported as the final ratio (R). The peptide ratios reported by CIMAGE were further filtered to ensure the removal or correction of low-quality ratios in each individual data set. The quality filters applied were the following: removal of half tryptic peptides; for ratios with high standard deviations from the median (90% of the median or above) the lowest ratio was taken instead of the median; removal of peptides with R=20 and only a single MS2 event triggered during the elution of the parent ion; manual annotation of all the peptides with ratios of 20, removing any peptides with low quality elution profiles that remained after the previous curation steps (only done for competitive isoTOP-ABPP).
(§4) Cross-data processing for fragment screening. For compound treated samples, biological replicates of the same condition were averaged, if the standard deviation was below 60% of the mean; otherwise, for lysines with at least one R value <4 for a particular compound, the lowest value of the ratio set was taken. For lysines, where all R values for a particular compound were ≥4, the average was reported. For peptides containing several possible modified lysines, the lysine with the highest number of quantification events was used for analysis and the remaining, redundant peptides were reported as alternative modification sites. Peptides included in the aggregate dataset (those used for further bioinformatics and statistical analyses) were required to have been quantified in 2 experiments for competitive isoTOP-ABPP. Lysines were categorized as liganded, if they had at least one ratio R≥4 (hit fragments). For liganded lysines with R=20 for all liganding events, lysines were required to have been quantified with R=20 in two separate experiments and were further required to have been quantified with R<20 in one additional experiment.

[2] = molecular target: T2, HDHD3 Haloacid dehalogenase-like hydrolase domain-containing protein 3 (Homo sapiens, UniProt Q9BSH5); test: competitive isoTOP-ABPP; format: binding; set-up: key to isoTOP-ABPP reactivity ratio at lysine Q9BSH5_K15: R = MS1 peak area ratio, DMSO (heavy) / compound-treated (light); conditions: for isoTOP-ABPP ratio (R) at liganded lysine Q9BSH5_K15 / R value (DMSO/fragment) for probe 1 labeling / isoTOP-ABPP reactivity ratio at lysine Q9BSH5_K15: 50 uM, in vitro; for isoTOP-ABPP ratio (R) at liganded lysine Q9BSH5_K15: sol, 231; for R value (DMSO/fragment) for probe 1 labeling: Q9BSH5_K15; for R value (DMSO/fragment) for probe 1 labeling / isoTOP-ABPP reactivity ratio at lysine Q9BSH5_K15: 231 sol; for isoTOP-ABPP ratio, lysine Q9BSH5_K15: 50 uM_231_sol_in vitro
T2 construct: isoTOP-ABPP experiments performed in cell lysates (in vitro); endogenous in cells; host or cells: soluble proteome of human cancer cell lines (MDA-MB-231; Ramos and Jurkat also prepared)
T2 sequence (Q9BSH5 1-251): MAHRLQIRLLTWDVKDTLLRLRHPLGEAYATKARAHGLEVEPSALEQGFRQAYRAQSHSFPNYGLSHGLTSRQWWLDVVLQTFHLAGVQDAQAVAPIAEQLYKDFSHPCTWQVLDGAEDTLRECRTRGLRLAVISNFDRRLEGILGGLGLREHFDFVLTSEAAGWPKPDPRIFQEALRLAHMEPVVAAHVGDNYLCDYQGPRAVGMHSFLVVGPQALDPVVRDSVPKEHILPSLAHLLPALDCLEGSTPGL
Method: as §1, §2, §3, §4

SMILES	isoTOP-ABPP ratio (R) at liganded lysine Q9BSH5_K15 [2]	isoTOP-ABPP reactivity ratio at lysine P52594_K134 [1]	isoTOP-ABPP reactivity ratio at lysine Q9BSH5_K15 [2]	further results
CC(C)(C)OC(=O)NCCCC(=O)Oc1ccc([N+](=O)[O-])cc1[N+](=O)[O-] [fragment 41, 2,4-Dinitrophenyl 4-((tert-butoxycarbonyl)amino)butanoate]	2.8			isoTOP-ABPP ratio (R) at liganded lysine P52594_K134 [1]: 20.0
Cn1cc(CC(=O)Oc2c(F)c(F)c(F)c(F)c2F)c2ccccc21 [fragment 22, Pentafluorophenyl 2-(1-methyl-1H-indol-3-yl)acetate]				R value (DMSO/fragment) for probe 1 labeling [1]: 1.4; R value (DMSO/fragment) for probe 1 labeling [2]: 1.1
O=C(Oc1ccc([N+](=O)[O-])cc1[N+](=O)[O-])c1ccc(-c2ccccc2)cc1 [fragment 37, 2,4-Dinitrophenyl [1,1′-biphenyl]-4-carboxylate]	4.3			isoTOP-ABPP ratio (R) at liganded lysine P52594_K134 [1]: 1.1
COc1cc(CCC(=O)Oc2ccc([N+](=O)[O-])cc2[N+](=O)[O-])cc(OC)c1OC [fragment 33, 2,4-Dinitrophenyl 3-(3,4,5-trimethoxyphenyl)propanoate]		20.0	1.5	
O=C(Oc1c(F)c(F)c(F)c(F)c1F)C(c1ccccc1)c1ccccc1 [fragment 20, Pentafluorophenyl 2,2-diphenylacetate]				R value (DMSO/fragment) for probe 1 labeling [1]: 1.0; R value (DMSO/fragment) for probe 1 labeling [2]: 1.1
O=C(Oc1ccc([N+](=O)[O-])cc1[N+](=O)[O-])c1ccc2ccccc2n1 [fragment 35, 2,4-Dinitrophenyl quinoline-2-carboxylate]	7.0			
O=C(CCc1ccc2c(c1)OCO2)Oc1ccc([N+](=O)[O-])cc1[N+](=O)[O-] [fragment 45, 2,4-Dinitrophenyl 3-(benzo[d][1,3]dioxol-5-yl)propanoate]				isoTOP-ABPP ratio, lysine P52594_K134 [1]: 20.0; isoTOP-ABPP ratio, lysine Q9BSH5_K15 [2]: 3.4
COc1cc(CCC(=O)Oc2c(F)c(F)c(F)c(F)c2F)cc(OC)c1OC [fragment 23, Pentafluorophenyl 3-(3,4,5-trimethoxyphenyl)propanoate]				R value (DMSO/fragment) for probe 1 labeling [1]: 1.7; R value (DMSO/fragment) for probe 1 labeling [2]: 1.3
O=C(Oc1ccc([N+](=O)[O-])cc1[N+](=O)[O-])c1ccccc1Nc1cccc(C(F)(F)F)c1 [fragment 40, 2,4-Dinitrophenyl 2-((3-(trifluoromethyl)phenyl)amino)benzoate]	0.9			isoTOP-ABPP ratio (R) at liganded lysine P52594_K134 [1]: 0.8
O=C(ON1C(=O)CCC1=O)c1cc(C(F)(F)F)cc(C(F)(F)F)c1 [fragment 46, 3,5-Bis(trifluoromethyl)benzoic acid NHS ester]				isoTOP-ABPP ratio, lysine P52594_K134 [1]: 1.0; isoTOP-ABPP ratio, lysine Q9BSH5_K15 [2]: 1.4
O=C(Oc1ccc([N+](=O)[O-])cc1[N+](=O)[O-])c1ccc(Oc2ccccc2)cc1 [fragment 39, 2,4-Dinitrophenyl 4-phenoxybenzoate]	1.3			isoTOP-ABPP ratio (R) at liganded lysine P52594_K134 [1]: 1.0
O=C(Oc1c(F)c(F)c(F)c(F)c1F)c1ccc2ccccc2n1 [fragment 25, Pentafluorophenyl quinoline-2-carboxylate]		1.1	4.0	
O=C(Oc1ccc([N+](=O)[O-])cc1[N+](=O)[O-])C(c1ccccc1)c1ccccc1 [fragment 30, 2,4-Dinitrophenyl 2,2-diphenylacetate]		14.3	20.0	
O=C(Oc1ccc([N+](=O)[O-])cc1[N+](=O)[O-])c1cc(C(F)(F)F)cc(C(F)(F)F)c1 [fragment 31, 2,4-Dinitrophenyl 3,5-bis(trifluoromethyl)benzoate]		1.2	4.6	
O=C(CN1C(=O)c2ccccc2C1=O)Oc1c(F)c(F)c(F)c(F)c1F [fragment 27, Pentafluorophenyl 2-(1,3-dioxoisoindolin-2-yl)acetate]		1.5	2.3	
CC(=O)Oc1ccc([N+](=O)[O-])cc1[N+](=O)[O-] [fragment 43, 2,4-Dinitrophenyl acetate]	3.1			isoTOP-ABPP ratio (R) at liganded lysine P52594_K134 [1]: 4.8
O=C(Oc1ccc([N+](=O)[O-])cc1[N+](=O)[O-])C(c1ccccc1)(c1ccccc1)c1ccccc1 [fragment 42, 2,4-Dinitrophenyl 2,2,2-triphenylacetate]	0.9			isoTOP-ABPP ratio (R) at liganded lysine P52594_K134 [1]: 1.0
O=C(Oc1c(F)c(F)c(F)c(F)c1F)c1cc(C(F)(F)F)cc(C(F)(F)F)c1 [fragment 21, Pentafluorophenyl 3,5-bis(trifluoromethyl)benzoate]				R value (DMSO/fragment) for probe 1 labeling [2]: 1.0
Cn1cc(CC(=O)Oc2ccc([N+](=O)[O-])cc2[N+](=O)[O-])c2ccccc21 [fragment 32, 2,4-Dinitrophenyl 2-(1-methyl-1H-indol-3-yl)acetate]		19.9	6.7	
O=C(CCc1cn(-c2ccccc2)nc1-c1ccccc1)Oc1ccc([N+](=O)[O-])cc1[N+](=O)[O-] [fragment 29, 2,4-Dinitrophenyl 3-(1,3-diphenyl-1H-pyrazol-4-yl)propanoate]		1.4	20.0	
O=C(Oc1c(F)c(F)c(F)c(F)c1F)C1CCN(C(=O)OCc2ccccc2)CC1 [fragment 24, 1-Benzyl 4-(pentafluorophenyl) piperidine-1,4-dicarboxylate]		1.5	2.3	
O=C(Oc1c(F)c(F)c(C(F)(F)F)c(F)c1F)c1cc(C(F)(F)F)cc(C(F)(F)F)c1 [fragment 47, 2,3,5,6-Tetrafluoro-4-(trifluoromethyl)phenyl 3,5-bis(trifluoromethyl)benzoate]				isoTOP-ABPP ratio, lysine Q9BSH5_K15 [2]: 0.9
